One may read the IC50 as the point on the concentration scale where inhibition reaches its midpoint.

Data set [1] concerns the target T1, mouse Nat2 (Mus musculus, UniProt P50295).
T1 construct: The mouse Nat2 open-reading frame [22] was sub-cloned into pET28b(+); hexa-histidine tag (His-tag, from pET28b(+)) (N, cleaved yes); made in house; host or cells: Escherichia coli Rosetta(DE3)pLysS
T1 sequence (P50295 1-290): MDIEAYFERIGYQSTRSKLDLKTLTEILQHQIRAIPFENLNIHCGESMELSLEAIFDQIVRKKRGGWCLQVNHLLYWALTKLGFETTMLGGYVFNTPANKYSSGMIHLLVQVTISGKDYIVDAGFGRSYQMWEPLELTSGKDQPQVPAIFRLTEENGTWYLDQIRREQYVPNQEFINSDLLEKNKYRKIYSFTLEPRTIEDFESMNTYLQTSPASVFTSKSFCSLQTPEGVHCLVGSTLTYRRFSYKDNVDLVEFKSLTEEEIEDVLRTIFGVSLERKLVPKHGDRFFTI
In words: Substrate specific activity of mouse Nat2 (rate of CoA production, DTNB). The data set is classed as biochemical. Particulars: substrate 500 μM, AcCoA 400 μM, 25 °C, pH 8.0. The procedure:
The rate of production of the free thiol Coenzyme A by NAT, in the presence of a range of known NAT acetyl-acceptor substrates, was determined by using Ellman's reagent, 5,5′-dithio-bis(2-nitrobenzoic acid) (DTNB) as previously described [[2,26]]. The substrate (500 μM) and purified recombinant NAT were pre-incubated (25 °C, 5 min) in 96-well flat-bottomed polystyrene plates (Costar®, Corning Inc.) in 20 mM Tris–HCl (pH 8.0). AcCoA (400 μM) was added to start the reaction in a final volume of 100 μL. The reaction was quenched with the addition of 25 μL of guanidine–HCl solution (6.4 M guanidine–HCl, 0.1 M Tris–HCl (pH 7.3)) containing 5 mM DTNB. The absorbance at 405 nm was measured on a plate-reader (Sunrise, Tecan). Assay buffer was used to replace substrate, AcCoA or NAT for control reactions. The amount of CoA produced in the assay was determined in comparison with a CoA standard curve.
Substrate abbreviations used for the substrate selectivity assays are as follows: aniline (ANL), 4-aminobenzoic acid (PABA), 4-aminosalicylic acid (4AS), 5-aminosalicylic acid (5AS), 4-chloroaniline (CLA), 4-bromoaniline (BRA), 4-iodoaniline (IOA), 4-methoxyanline (ANS), 4-ethoxyaniline (EOA), 4-butoxyanline (BOA), 4-hexyloxyaniline (HOA), 4-phenoxyaniline (POA), 4-aminoveratrole (4AV), 2-aminofluorene (2AF), 4-aminobenzoyl-L-glutamate (pABGlu), sulfamethazine (SMZ), procainamide (PRO), 4-aminopyridine (APY), isoniazid (INH), hydralazine (HDZ) and phenylhydrazine (PHZ). The stock concentration of substrate was 100 mM dissolved in DMSO, such that the final concentration of DMSO was less than 5% in the assays. DMSO only controls were carried out.
Fig. 2 Comparison of the substrate specific activity profiles of mouse Nat2, human NAT1 and human NAT2. The substrate specific activity profiles for mouse Nat2 (grey bars), human NAT1 (cross-hatched bars) and human NAT2 (black bars) are shown. The activity of mouse Nat2 was determined by measuring the rate of CoA production, as described in Section 2. Purified mouse Nat2 (0.125 μg) was incubated with arylamine substrate (each at 500 μM) and AcCoA (400 μM) in assay buffer (20 mM Tris–HCl (pH 8.0)) containing 0.5% (v/v) DMSO at 25 °C. The specific activities were determined from the linear initial rates of reaction. All measurements were performed in triplicate and are expressed as mean ± standard deviation relative to the most rapidly acetylated substrate. The human NAT1 and NAT2 data are taken from. The abbreviations are defined in Section 2.
The rate of hydrolysis of AcCoA was measured in the presence of a wide range of acetyl-acceptors (known NAT substrates, at 500 μM) and mouse Nat2 as described in the Methods section and Supplementary Fig. 1. The assays were performed in the presence of 5% (v/v) DMSO.

Data set [2] addresses T1, mouse Nat2. Briefly: Inhibition of mouse Nat2 acetylation of PABA (colorimetric DMAB assay). In kind it is biochemical. The procedure:
The rates of arylamine acetylation by NATs were determined colorimetrically as previously described, but with minor modifications. Each assay contained the enzyme, arylamine substrate (see each figure legends for concentrations) and AcCoA (400 μM) in a total volume of 100 μL in assay buffer (20 mM Tris–HCl (pH 8.0), 1 mM DTT). Initially, the enzyme and substrate mixtures were pre-incubated at 25 °C for 5 min and AcCoA was added to start the reaction. The reaction was quenched using 20% (w/v) trichloroacetic acid (TCA) at different time intervals. The stopped reaction was centrifuged (16,000 × […], 10 min) to pellet the precipitated proteins. The stopped reaction mixture (200 μL) was added to 800 μL of 5% (w/v) 4-(N,N-dimethylamino)benzaldehyde (DMAB) in 9:1 acetonitrile:water to develop the colour. The absorption at 450 nm was measured with a Hitachi U-2001 UV–vis spectrophotometer, with the amount of residual substrate in the reaction was determined by comparison with a standard curve.
The inhibitory effect of steroids on the rate of acetylation of arylamines by mouse Nat2 was measured by using the colorimetric DMAB assay as described in Section 2. Test compounds (50 μM, 2% DMSO unless specified) were pre-incubated with recombinant mouse Nat2 (3 ng) and PABA (75 μM) for 10 min at room temperature. AcCoA (400 μM) was added to start the reaction and the reaction mixture was incubated at 37 °C. The total reaction volume was 100 μL. Reactions were stopped at various time intervals by the addition of 100 μL of 20% (w/v) TCA. The colour was developed and measured as described in Section 2. The linear initial rate of reaction was determined and the percentage inhibition was calculated relative to the control activity measured without the inhibitor. All measurements were performed in triplicate and are expressed as mean ± standard deviation. *2% (v/v) ethanol **5% (v/v) DMSO used to dissolve the compounds in the assay.

In data set [3] the target is T1, mouse Nat2. Briefly: 1D 1H NMR titration of mouse Nat2 with ligand. Particulars: 8 equivalents of bisphenol A; 20 °C, pH 7.0. The data set is classed as binding. The procedure:
1D ^1H NMR spectra for hamster and mouse Nat2 were collected at 20 °C using a jump-return sequence. This sequence enabled the observation of H^N peaks which exchange to a significant extent with H2O. Spectra were collected using a 600 MHz spectrometer using a sweep width of 12,500 Hz. Unlabelled hamster and mouse Nat2 were used at a concentration of 10 mg/mL in the buffer described above. The titration of mouse Nat2 with bisphenol A was carried out by stepwise addition of small volumes (5–20 μL) of a concentrated solution of bisphenol A (100 mM in deuterated DMSO) to the mouse Nat2 solution in the NMR tube. The highest concentration of DMSO in the sample used was 2.8%. DMSO alone had no effect on the NMR spectrum of mouse Nat2 using concentrations up to 5%.

Details of data set [4]: method as in PMID 11502892. Particulars: after a soy-based meal; cited from earlier work.
For data set [5] the following is noted: cited from earlier work.
Where [6] appears, read: steroidogenic compounds, inhibitor 1–500 μM, recombinant mouse Nat2 3 ng, PABA 75 μM, AcCoA 400 μM, 37 °C, read-out: IC50.
Where [7] appears, read: xenobiotic oestrogens, recombinant mouse Nat2 3 ng, PABA 75 μM, AcCoA 400 μM, 37 °C, read-out: IC50 mNAT2.

Structures are written as SMILES. Like-named read-outs stand apart in the source and are kept apart here. Bounds are passed on as bounds.

`Nc1ccc2c(c1)Cc1ccccc1-2` [2AF, 2-aminofluorene]: the “Specific activity of mouse Nat2 with substrate” value (“Specific activity of mouse Nat2” for short) at mouse Nat2 [1] is given as “high specific activities”; at mouse Nat2 [1] (listed as 2-aminofluorene), “readily acetylates”.
With `Nc1ccc(C(=O)O)c(O)c1` [4AS, 4-aminosalicylic acid], on mouse Nat2 [1], the “Specific activity of mouse Nat2” value was “high specific activities”.
Still for that read-out and setting: as for `Nc1ccc(O)c(C(=O)O)c1` [5AS, 5-aminosalicylic acid], the entry is “high specific activities”.
As for `CC(=O)[C@@]1(O)CC[C@H]2[C@@H]3CCC4=CC(=O)CC[C@]4(C)[C@H]3CC[C@@]21C` [17-Hydroxy-progesterone], the half-inhibitory concentration (IC50) on mouse Nat2 [2] (setting [6]) was over 500 µM.
Still for that read-out and setting: then `C[C@]12CC[C@@H]3c4ccc(O)cc4CC[C@H]3[C@@H]1CC[C@@H]2O` [17-Hydroxy-β-estradiol], with 55 ± 5 µM.
As for `C[C@H]1CCC[C@H](O)CCC/C=C/c2cc(O)cc(O)c2C(=O)O1` [Alpha-Zearalenol], on mouse Nat2 [2] (setting [7]), the half-maximal inhibitory concentration (IC50) turned out to be 70 ± 10 µM.
Regarding `C[C@]12CCC(=O)C=C1CC[C@@H]1[C@@H]2CC[C@]2(C)C(=O)CC[C@@H]12` [Androsteinedione], the IC50 on mouse Nat2 [2] (setting [6]) is over 500 µM.
For `C[C@H]1CCC[C@@H](O)CCC/C=C/c2cc(O)cc(O)c2C(=O)O1` [Beta-Zearalenol], at mouse Nat2 [2] (setting [7]), the half-inhibitory concentration (IC50) was 450 ± 10 µM.
Consider `CC(C)(c1ccc(O)cc1)c1ccc(O)cc1` [Bisphenol A], for which the IC50 on mouse Nat2 [2] (setting [7]) was 290 ± 10 µM. Also, at mouse Nat2 [3], the “Change in chemical shift of histidine peak 1 (downfield)” value was about 0.12 ppm and the “Change in chemical shift of histidine peak 4 (upfield)” value is about 0.08 ppm.
As to `C[C@]12CC[C@@H]3c4ccc(O)cc4CC[C@H]3[C@@H]1CCC2=O` [Estrone], on mouse Nat2 [2] (setting [6]), the 50% inhibitory concentration (IC50) amounted to 370 ± 10 µM.
In the case of `O=c1c(-c2ccc(O)cc2)coc2cc(O)cc(O)c12` [Geni stein, genistein], inhibition against mouse Nat2 [2] was half-maximal at 45 ± 5 µM (IC50). Besides, the Circulating plasma concentration in data set [4] was at most 18 µM.
With `NNc1nncc2ccccc12` [HDZ, hydralazine], on mouse Nat2 [1], the “Specific activity of mouse Nat2” value is reported as “low specific activities”.
Consider `NNC(=O)c1ccncc1` [INH, isoniazid], for which the “Specific activity of mouse Nat2” value on mouse Nat2 [1] is on record as “low specific activities”.
On the same count and under the same terms, then `Nc1ccc(C(=O)O)cc1` [PABA, 4-aminobenzoic acid], with “high specific activities”; and `NNc1ccccc1` [PHZ, phenylhydrazine], with “low specific activities”.
In the case of `CC(=O)[C@H]1CC[C@H]2[C@@H]3CC=C4C[C@@H](O)CC[C@]4(C)[C@H]3CC[C@]12C` [Pregnelone], the IC50 at mouse Nat2 [2] (setting [6]) was over 100 µM.
In the case of `CC/C(=C(\c1ccccc1)c1ccc(OCCN(C)C)cc1)c1ccccc1` [Tamoxifen], the Intratumoral level result in data set [5] is “micromolar concentrations”.
`C[C@]12CC[C@H]3[C@@H](CCC4=CC(=O)CC[C@@]43C)[C@@H]1CC[C@@H]2O` [Testosterone]: the concentration for half-maximal inhibition (IC50) at mouse Nat2 [2] (setting [6]) was over 500 µM.
Consider `C[C@H]1CCCC(=O)CCC/C=C/c2cc(O)cc(O)c2C(=O)O1` [Zearalenone], for which the midpoint of inhibition against mouse Nat2 [2], the IC50, lay at 220 ± 10 µM.
On to `CCN(CC)CCNC(=O)c1ccc(N)cc1` [procainamide], for which the “Specific activity of mouse Nat2” value at mouse Nat2 [1] is “low specific activities”.
Same read-out and setting: then `Cc1cc(C)nc(NS(=O)(=O)c2ccc(N)cc2)n1` [sulfamethazine], with “low specific activities”.
